From article PMC4352439, “Safety Evaluation of Chinese Medicine Injections with a Cell Imaging-Based Multiparametric Assay Revealed a Critical Involvement of Mitochondrial Function in Hepatotoxicity” (Evidence-based Complementary and Alternative Medicine : eCAM, 2015)
Where “and” joins values, the source holds several entries; their conditions need not be identical. Equal entries are not always repeated. Where two headings read alike, the source gives them in different places.

Assays:
HepG2 cells = assay: multiparametric cell-based HCA hepatotoxicity assay; design: species or system human; settings: for IC50: HepG2, 24-hour incubation
[1] = design: method as in earlier work; settings: Operetta assay protocol; read-out: median concentration (IC50); cited from earlier work

SMILES	cell nucleuses (Hoechst 33342) in representative images (HepG2 cells; 3 μM)	mitochondrial mass (MS), intensity of Mitotracker Deep Red FM in representative images (HepG2 cells; 3 μM)	increase of plasma membrane permeability (PMP) (HepG2 cells; 30 μM) [fold]	IC50 (HepG2 cells; read-out: IC50 of cell number (CN)) [µM]	IC50 (HepG2 cells; read-out: IC50 of mitochondrial mass (MS)) [µM]	IC50 (HepG2 cells; read-out: IC50 of mitochondrial membrane potential (MMP))	IC50 (HepG2 cells; read-out: IC50 of nuclear area (NA)) [µM]	IC50 (HepG2 cells; read-out: IC50 of plasma membrane permeability (PMP)) [µM]	IC50 [1] [µM]	increase of plasma membrane permeability (PMP) (HepG2 cells; 100 μM) [fold]	increase of nuclear area (NA) (HepG2 cells; 3 mM) [%]	IC50 (HepG2 cells; listed as AAP, read-out: IC50 of cell number (CN)) [µM]	IC50 (HepG2 cells; listed as AAP, read-out: IC50 of mitochondrial mass (MS)) [µM]	IC50 (HepG2 cells; listed as AAP, read-out: IC50 of plasma membrane permeability (PMP)) [µM]	IC50 (HepG2 cells; Homo sapiens, HepG2, 24 h, read-out: IC50 of cell number (CN)) [µM]	IC50 (HepG2 cells; Homo sapiens, HepG2, 24 h, read-out: IC50 of mitochondrial mass (MS)) [µM]	IC50 (HepG2 cells; Homo sapiens, HepG2, 24 h, read-out: IC50 of plasma membrane permeability (PMP)) [µM]
N#CC(C#N)=NNc1ccc(OC(F)(F)F)cc1 [FCCP, P-fluoromethoxyphenylhydrazone]	shrunk	increase	17.5	5.18	7.02	0.77 µM and 0.768 µM	0.642	25.7	5.2	–	–	–	–	–	–	–	–
CC(=O)Nc1ccc(O)cc1 [acetaminophen]	–	–	–	–	–	–	–	–	1300	61.4	25.7	1840	9780	7.7	1840	9780	10
